Values quoted from earlier work as cited in paper PMC9516332 (Frontiers in Oncology, 2022).
Like-named read-outs stand apart in the source and are kept apart here.

Experiments:
[1] = target: panel of 255 wild-type kinases (Homo sapiens, UniProt P48729); details: kinase CK1α, 1 µmol/L single concentration, cited from earlier work
[2] = target: panel of 255 wild-type kinases (Homo sapiens, UniProt Q9P1W9); details: kinase PIM2, 1 µmol/L single concentration, cited from earlier work
[3] = target: panel of 255 wild-type kinases (Homo sapiens, UniProt O96017); details: CHK2 kinase assay, 1 µmol/L single concentration, cited from earlier work
[4] = target: T1, panel of 255 wild-type kinases (Homo sapiens, UniProt P29320); details: kinase EPHA3, 1 µmol/L single concentration, cited from earlier work
T1 sequence (P29320 21-983): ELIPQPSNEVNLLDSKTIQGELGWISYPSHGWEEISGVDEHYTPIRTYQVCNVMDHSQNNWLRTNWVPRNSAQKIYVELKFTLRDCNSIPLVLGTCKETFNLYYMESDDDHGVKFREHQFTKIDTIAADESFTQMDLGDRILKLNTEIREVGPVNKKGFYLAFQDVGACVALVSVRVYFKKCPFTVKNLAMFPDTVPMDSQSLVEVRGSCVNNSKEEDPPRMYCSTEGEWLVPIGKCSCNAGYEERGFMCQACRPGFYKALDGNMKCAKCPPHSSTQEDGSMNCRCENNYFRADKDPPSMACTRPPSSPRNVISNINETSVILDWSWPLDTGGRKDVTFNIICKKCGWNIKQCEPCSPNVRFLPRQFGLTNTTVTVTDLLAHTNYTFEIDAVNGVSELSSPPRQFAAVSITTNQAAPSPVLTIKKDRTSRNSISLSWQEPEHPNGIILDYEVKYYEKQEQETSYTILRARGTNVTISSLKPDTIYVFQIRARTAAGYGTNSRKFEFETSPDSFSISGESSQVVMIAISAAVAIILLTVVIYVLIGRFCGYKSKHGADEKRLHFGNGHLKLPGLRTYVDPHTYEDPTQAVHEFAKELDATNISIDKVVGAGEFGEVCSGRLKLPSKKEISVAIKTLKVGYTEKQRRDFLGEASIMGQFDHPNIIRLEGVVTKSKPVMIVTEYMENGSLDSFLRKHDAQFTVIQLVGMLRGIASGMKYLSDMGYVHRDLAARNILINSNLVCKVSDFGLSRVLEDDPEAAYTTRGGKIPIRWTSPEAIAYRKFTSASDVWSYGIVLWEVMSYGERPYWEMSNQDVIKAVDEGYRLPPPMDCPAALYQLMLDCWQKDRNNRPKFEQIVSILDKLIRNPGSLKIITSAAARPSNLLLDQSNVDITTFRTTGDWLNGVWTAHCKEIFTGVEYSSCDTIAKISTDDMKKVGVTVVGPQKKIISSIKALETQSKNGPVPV

[5] = target: T2, panel of 255 wild-type kinases (Homo sapiens, UniProt Q9UL54); details: kinase TAOK2, 1 µmol/L single concentration, cited from earlier work
T2 sequence (Q9UL54 1-1235): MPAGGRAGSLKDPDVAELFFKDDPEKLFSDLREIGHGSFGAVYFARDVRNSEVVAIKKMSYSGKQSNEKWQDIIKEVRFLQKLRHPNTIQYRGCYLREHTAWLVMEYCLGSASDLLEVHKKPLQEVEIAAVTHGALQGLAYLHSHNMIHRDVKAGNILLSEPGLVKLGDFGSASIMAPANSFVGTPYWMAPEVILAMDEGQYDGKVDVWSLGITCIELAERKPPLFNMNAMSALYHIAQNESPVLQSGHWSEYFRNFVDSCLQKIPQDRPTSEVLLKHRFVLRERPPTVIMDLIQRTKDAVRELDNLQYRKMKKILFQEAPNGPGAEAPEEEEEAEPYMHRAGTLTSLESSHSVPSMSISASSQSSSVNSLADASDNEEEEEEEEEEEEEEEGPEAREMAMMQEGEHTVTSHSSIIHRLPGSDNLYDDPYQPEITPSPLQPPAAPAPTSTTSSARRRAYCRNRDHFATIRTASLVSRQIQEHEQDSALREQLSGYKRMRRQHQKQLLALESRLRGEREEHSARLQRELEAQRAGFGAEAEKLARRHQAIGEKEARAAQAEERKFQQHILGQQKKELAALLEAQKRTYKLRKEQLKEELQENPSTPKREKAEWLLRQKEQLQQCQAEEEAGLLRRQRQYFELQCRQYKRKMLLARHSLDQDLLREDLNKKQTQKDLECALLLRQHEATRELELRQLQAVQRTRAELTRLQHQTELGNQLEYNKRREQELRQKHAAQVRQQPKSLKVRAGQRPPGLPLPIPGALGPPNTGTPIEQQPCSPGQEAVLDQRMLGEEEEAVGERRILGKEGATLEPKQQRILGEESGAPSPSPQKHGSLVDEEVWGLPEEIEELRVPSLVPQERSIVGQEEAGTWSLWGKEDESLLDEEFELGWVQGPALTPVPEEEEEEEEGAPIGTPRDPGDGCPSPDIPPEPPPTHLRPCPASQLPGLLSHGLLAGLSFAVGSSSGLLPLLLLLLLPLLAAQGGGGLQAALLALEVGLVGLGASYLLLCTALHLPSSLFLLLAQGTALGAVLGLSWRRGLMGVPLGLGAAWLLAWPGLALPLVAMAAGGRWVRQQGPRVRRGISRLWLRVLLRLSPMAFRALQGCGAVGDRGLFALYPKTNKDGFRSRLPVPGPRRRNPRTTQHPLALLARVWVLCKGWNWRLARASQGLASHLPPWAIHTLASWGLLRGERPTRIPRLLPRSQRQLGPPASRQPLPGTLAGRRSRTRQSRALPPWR

[6] = target: panel of 255 wild-type kinases (Homo sapiens, UniProt P48730); details: cited from earlier work
[7] = target: panel of 255 wild-type kinases (Homo sapiens, UniProt Q86Z02); details: kinase HIPK1, 1 µmol/L single concentration, cited from earlier work
[8] = target: panel of 255 wild-type kinases (Homo sapiens, UniProt Q9NYY3); details: kinase PLK2, 1 µmol/L single concentration, cited from earlier work
[9] = ref DOI: 10.1158/1535-7163.MCT-18-0877
[10] = kinase CK1δ, 1 µmol/L single concentration, ref DOI: 10.1158/1535-7163.MCT-18-0877
[11] = ref DOI: 10.1371/journal.pone.0092146
[12] = kinase CK1δ, 1 µmol/L single concentration, ref DOI: 10.1371/journal.pone.0092146

For `C=CC(=O)N1CCC[C@@H](n2nc(-c3ccc(Oc4ccccc4)cc3)c3c(N)ncnc32)C1` [ibrutinib], the “%-inhibition at 1 µmol/L, CK1α” value [1, 9] is given as -2%, the “%-inhibition at 1 µmol/L, PIM2” value [2, 9] is given as -5% and the “%-inhibition CHK2” value [3, 9] is given as 14%. The “%-inhibition at 1 µmol/L, EPHA3” value [4, 9] was 3.8%, the “%-inhibition at 1 µmol/L, TAOK2” value [5, 9] was 5% and the “%-inhibition at 1 µmol/L, CK1δ” value [6, 10] was 7.46%. The “%-inhibition at 1 µmol/L, HIPK1” value [7, 9] was 4.26% and the “%-inhibition at 1 µmol/L, PLK2” value [8, 9] was 1.72%.
For `CC(=O)Nc1cccc(-n2c(=O)n(C3CC3)c(=O)c3c(Nc4ccc(I)cc4F)n(C)c(=O)c(C)c32)c1` [trametinib], the “%-inhibition at 1 µmol/L, CK1α” value [1, 11] is given as 3%, the “%-inhibition at 1 µmol/L, PIM2” value [2, 11] is given as -4% and the “%-inhibition CHK2” value [3, 11] is given as -5%. The “%-inhibition at 1 µmol/L, EPHA3” value [4, 11] was -6%, the “%-inhibition at 1 µmol/L, TAOK2” value [5, 11] was -2.59% and the “%-inhibition at 1 µmol/L, CK1δ” value [6, 12] was 0.365%. The “%-inhibition at 1 µmol/L, HIPK1” value [7, 11] was -3.71% and the “%-inhibition at 1 µmol/L, PLK2” value [8, 11] was -1.65%.
In the case of `Cc1cc(Nc2ncc(Cl)c(Nc3ccccc3S(=O)(=O)C(C)C)n2)c(OC(C)C)cc1C1CCNCC1` [ceritinib], the “%-inhibition at 1 µmol/L, CK1α” value [1, 9] is listed as 7%, the “%-inhibition at 1 µmol/L, PIM2” value [2, 9] is listed as -8% and the “%-inhibition CHK2” value [3, 9] is listed as 88%. The “%-inhibition at 1 µmol/L, EPHA3” value [4, 9] was 1.74%, the “%-inhibition at 1 µmol/L, TAOK2” value [5, 9] was 7% and the “%-inhibition at 1 µmol/L, CK1δ” value [6, 10] was -6%. The “%-inhibition at 1 µmol/L, HIPK1” value [7, 9] was 12% and the “%-inhibition at 1 µmol/L, PLK2” value [8, 9] was -3.54%.
In the case of `C[C@@H](Oc1cc(-c2cnn(C3CCNCC3)c2)cnc1N)c1c(Cl)ccc(F)c1Cl` [crizotinib], the “%-inhibition at 1 µmol/L, CK1α” value [1, 11] is listed as -1.36%, the “%-inhibition at 1 µmol/L, PIM2” value [2, 11] is listed as -5.28% and the “%-inhibition CHK2” value [3, 11] is listed as 9%. The “%-inhibition at 1 µmol/L, EPHA3” value [4, 11] was 19%, the “%-inhibition at 1 µmol/L, TAOK2” value [5, 11] was 33% and the “%-inhibition at 1 µmol/L, CK1δ” value [6, 12] was 9%. The “%-inhibition at 1 µmol/L, HIPK1” value [7, 11] was -7% and the “%-inhibition at 1 µmol/L, PLK2” value [8, 11] was 1.1%.
In the case of `C=CC(=O)Nc1cc(Nc2nccc(-c3cn(C)c4ccccc34)n2)c(OC)cc1N(C)CCN(C)C` [osimertinib], the “%-inhibition at 1 µmol/L, CK1α” value [1, 9] is listed as 4.46%, the “%-inhibition at 1 µmol/L, PIM2” value [2, 9] is listed as -5.45% and the “%-inhibition CHK2” value [3, 9] is listed as 6%. The “%-inhibition at 1 µmol/L, EPHA3” value [4, 9] was 0.753%, the “%-inhibition at 1 µmol/L, TAOK2” value [5, 9] was 7% and the “%-inhibition at 1 µmol/L, CK1δ” value [6, 10] was 7.49%. The “%-inhibition at 1 µmol/L, HIPK1” value [7, 9] was 34% and the “%-inhibition at 1 µmol/L, PLK2” value [8, 9] was 1.06%.
For `CCCS(=O)(=O)Nc1ccc(F)c(C(=O)c2c[nH]c3ncc(-c4ccc(Cl)cc4)cc23)c1F` [vemurafenib], the “%-inhibition at 1 µmol/L, CK1α” value [1, 11] is given as -4.34%, the “%-inhibition at 1 µmol/L, PIM2” value [2, 11] is given as -2% and the “%-inhibition CHK2” value [3, 11] is given as 6.32%. The “%-inhibition at 1 µmol/L, EPHA3” value [4, 11] was -7.52%, the “%-inhibition at 1 µmol/L, TAOK2” value [5, 11] was 5.35% and the “%-inhibition at 1 µmol/L, CK1δ” value [6, 12] was -3%. The “%-inhibition at 1 µmol/L, HIPK1” value [7, 11] was -4.72% and the “%-inhibition at 1 µmol/L, PLK2” value [8, 11] was -1.85%.
For `O=C(c1ccc(F)c(F)c1Nc1ccc(I)cc1F)N1CC(O)([C@@H]2CCCCN2)C1` [cobimetinib], the “%-inhibition at 1 µmol/L, CK1α” value [1, 9] is listed as 2%, the “%-inhibition at 1 µmol/L, PIM2” value [2, 9] is listed as -4.45% and the “%-inhibition CHK2” value [3, 9] is listed as -0.103%. For the same molecule, the “%-inhibition at 1 µmol/L, EPHA3” value [4, 9] was 2%, the “%-inhibition at 1 µmol/L, TAOK2” value [5, 9] was 5.42% and the “%-inhibition at 1 µmol/L, CK1δ” value [6, 10] was -2.63%. For the same molecule, the “%-inhibition at 1 µmol/L, HIPK1” value [7, 9] was 6.62% and the “%-inhibition at 1 µmol/L, PLK2” value [8, 9] was -0.309%.
For `CC(C)(C)c1nc(-c2cccc(NS(=O)(=O)c3c(F)cccc3F)c2F)c(-c2ccnc(N)n2)s1` [dabrafenib], the “%-inhibition at 1 µmol/L, CK1α” value [1, 11] is given as 13%, the “%-inhibition at 1 µmol/L, PIM2” value [2, 11] is given as 0.238% and the “%-inhibition CHK2” value [3, 11] is given as 7%. The “%-inhibition at 1 µmol/L, EPHA3” value [4, 11] was 18%, the “%-inhibition at 1 µmol/L, TAOK2” value [5, 11] was 34% and the “%-inhibition at 1 µmol/L, CK1δ” value [6, 12] was 8.51%. The “%-inhibition at 1 µmol/L, HIPK1” value [7, 11] was 70% and the “%-inhibition at 1 µmol/L, PLK2” value [8, 11] was -4.64%.
In the case of `CO[C@@H]1[C@H](N(C)C(=O)c2ccccc2)C[C@H]2O[C@]1(C)n1c3ccccc3c3c4c(c5c6ccccc6n2c5c31)C(=O)NC4` [midostaurin], the “%-inhibition at 1 µmol/L, CK1α” value [1, 9] is listed as 3.51%, the “%-inhibition at 1 µmol/L, PIM2” value [2, 9] is listed as -9% and the “%-inhibition CHK2” value [3, 9] is listed as 36%. The “%-inhibition at 1 µmol/L, EPHA3” value [4, 9] was 8%, the “%-inhibition at 1 µmol/L, TAOK2” value [5, 9] was 9% and the “%-inhibition at 1 µmol/L, CK1δ” value [6] was -2%. The “%-inhibition at 1 µmol/L, HIPK1” value [7, 9] was 12% and the “%-inhibition at 1 µmol/L, PLK2” value [8, 9] was 2.68%.
